Test [1] deals with SARS-COV-2 Scotland variant (linage: B.1.222). Briefly: microbe, parasite or virus in culture. The format is cell-based. Conditions: Severe acute respiratory syndrome coronavirus 2, Calu-3.
The test system of test [2] is SARS-COV-2 South Africa variant (linage: B.1.351). In words: microbe, parasite or virus in culture. Format: cell-based. Conditions: Severe acute respiratory syndrome coronavirus 2, Calu-3; read-out: IC50, South African (B.1.351) variant.

Structures are written as SMILES.

The term IC50 denotes the concentration needed to halve the response being measured. `O=C1Nc2cc(C(F)(F)F)ccc2Oc2ccsc21` [formula (IIa), 7-(trifluoromethyl)benzo[b]-thieno[2,3-f][1,4]oxazepin-10(9H)-one]: the values for the IC50 in test [1] and in test [2] were 1390 nM and 3000 nM, respectively.

Turning to `CN1C(=O)c2ccccc2[S+]([O-])c2cc([N+](=O)[O-])ccc2S1(=O)=O` (stereo not shown) [formula (Ia), 6-methyl-2-nitrodibenzo[d,g]-[1,6,2]dithiazocin-7(6H)-one 5,5, 12-trioxide], the IC50 in test [1] is 2640 nM; in test [2] it was 9270 nM.

(Values after patent US20240277730A1, “SUPPRESSION OF COVID-19 REPLICATION BY COVID-19 ENTRY INHIBITORS” (Board of Regents of the University of Nebraska, priority 2021, published 2024).)
